Measured values from US8551939B2, “Peptide analogues, particularly for the treatment of chronic pain” (Instytut Medycyny Doswiadczalnej I Klinicznej, priority 2008, dated 2013).
Where a SMILES comes first, the peptide text is derived from it. [ ]: non-standard residue; d: D form.

Assays:
Type in all cases: in vivo
rats = assay: Analgesic activity against thermal pain after administration into the subarachnoid space via cannulae; details: subarachnoid cannula
Text: Two weeks prior to the experiment, rats were implanted with cannulae into the subarachnoid space. On the day of the experiment we examined analgesic activity by administering the peptide Tyrosyl-D-lysyl-phenylalanyl-phenylalanyl-lysyl-lysyl-prolyl-tyrosyl-isoleucyl-leucine.

[1] = tested on: mice with inflammation due to tumour take; assay: Oncogenic pain model (murine melanoma cells into the hind leg), tail immersion in 55° C. water; details: two weeks of melanoma tumour development, intraperitoneal, 30 mg/kg
Protocol: In an animal oncogenic pain model, in mice, inflammation was induced via the administration of about a million murine melanoma cells into the hind leg. After two days we observed increasing inflammation due to tumour take. After two weeks of tumour development we examined the effect of Tyrosyl-D-arginyl-phenylalanyl-phenylalanyl-lysyl-lysyl-prolyl-tyrosyl-isoleucyl-leucine against acute pain elicited by tail immersion in 55° C. water.

mice with inflammation = assay: Tail immersion (55° C.) acute pain test in mice with Freund's adjuvant induced paw inflammation; details: one week after Freund's adjuvant into the paw, intravenous, 20 mg/kg
Protocol: Inflammation was induced in mice by administering Freund's adjuvant into the paw. Inflammation was observed within two days. After a week, we examined the analgesic activity of the peptide analogue Tyrosyl-D-lysyl-phenylalanyl-phenylalanyl-arginyl-arginyl-prolyl-tyrosyl-isoleucyl-leucine against acute pain elicited by immersion of the tail into 55° C.

Compound: CC[C@H](C)[C@H](NC(=O)[C@H](Cc1ccc(O)cc1)NC(=O)[C@@H]1CCCN1C(=O)[C@H](CCCCN)NC(=O)[C@H](CCCCN)NC(=O)[C@H](Cc1ccccc1)NC(=O)[C@H](Cc1ccccc1)NC(=O)[C@@H](CCCCN)NC(=O)[C@@H](N)Cc1ccc(O)cc1)C(=O)N[C@@H](CC(C)C)C(=O)O [Tyrosyl-D-lysyl-phenylalanyl-phenylalanyl-lysyl-lysyl-prolyl-tyrosyl-isoleucyl-leucine] (H-Y[dK]FFKKPYIL-OH)
- change of analgesic effect on repeated administration (tolerance) (rats; daily dose of 5 mg): no changes in the extensive analgesic effect
- analgesic activity against thermal pain (rats; dose of 5 mg): complete analgesis
- duration of complete analgesis against thermal pain (rats; dose of 5 mg): 1 h

Compound: CC[C@H](C)[C@H](NC(=O)[C@H](Cc1ccc(O)cc1)NC(=O)[C@@H]1CCCN1C(=O)[C@H](CCCCN)NC(=O)[C@H](CCCCN)NC(=O)[C@H](Cc1ccccc1)NC(=O)[C@H](Cc1ccccc1)NC(=O)[C@@H](CCCNC(=N)N)NC(=O)[C@@H](N)Cc1ccc(O)cc1)C(=O)N[C@@H](CC(C)C)C(=O)O [Tyrosyl-D-arginyl-phenylalanyl-phenylalanyl-lysyl-lysyl-prolyl-tyrosyl-isoleucyl-leucine] (H-Y[dR]FFKKPYIL-OH)
- effect against acute pain elicited by tail immersion in 55° C. water [1]: complete analgesis

Compound: CC[C@H](C)[C@H](NC(=O)[C@H](Cc1ccc(O)cc1)NC(=O)[C@@H]1CCCN1C(=O)[C@H](CCCNC(=N)N)NC(=O)[C@H](CCCNC(=N)N)NC(=O)[C@H](Cc1ccccc1)NC(=O)[C@H](Cc1ccccc1)NC(=O)[C@@H](CCCCN)NC(=O)[C@@H](N)Cc1ccc(O)cc1)C(=O)N[C@@H](CC(C)C)C(=O)O [Tyrosyl-D-lysyl-phenylalanyl-phenylalanyl-arginyl-arginyl-prolyl-tyrosyl-isoleucyl-leucine] (H-Y[dK]FFRRPYIL-OH)
- analgesic activity against acute pain elicited by immersion of the tail into 55° C. (mice with inflammation): complete analgesis
